Laboratory results from patent US20240174696A1, “2,8-DIAZASPIRO[4.5]DECANE COMPOUNDS” (Genentech, Inc., priority 2021, published 2024).
pEC50, pKi: −log10 of the molar value. Counter-ions that a name gives are not always drawn.

How the values were obtained:
[1] = target: Human LATS2 catalytic domain (Homo sapiens (Human), UniProt Q9NRM7); test: LATS2 High ATP HTRF Assay; type: biochemical; conditions: no asterisk: LATS2 High ATP HTRF Assay, 5000 μM ATP, 0.05 nM LATS2
Description: Human LATS2 catalytic domain which contains the amino acids G553-V1088 (accession NP_055387) was purified in-house. The LATS2 catalytic domain was co-purified with Mob1b (accession NP_775739). The LATS2 biochemical HTRF assay was performed using the HTRF KinEASE-STK S1 Kit (Cisbio, Cat #62ST1PEC), following the protocol from the manufacturer. Compounds were dispensed by the Echo Liquid Handler (Labcyte) into a white 384-well plate (PerkinElmer, Cat #6008289). 3 uL of 2×LATS2 enzyme solution was added to the compounds, following by a 10 minute incubation at room temperature. Then, 2×ATP and STK S1 peptide solution was added to initiate the one hour enzyme reaction at room temperature. The final condition of the reaction was 0.2 nM LATS2, 50 μM ATP, 0.5 μM STK S1 peptide in 50 mM HEPES pH7.2, 10 mM MgCl2, 0.1% BGG, 0.005% Brij-35, 1 mM DTT. The reaction was quenched by adding 6 uL of the detection mixture which contained Streptavidin XL665 and STK Antibody-Cryptate (Cisbio), incubate for 1 hour at room temperature. The HTRF (665 nm/620 nm) signal was read on the Envision plater reader (PerkinElmer). The IC50 values were determined by fitting the % inhibition with a nonlinear four-parameter logistical equation. The Ki values were calculated using the Cheng-Prusoff equation for a competitive inhibitor, IC50═Ki (1+S/Km)+M [E] with ATP Km for LATS2=105 μM.
The LATS2 high ATP HTRF assay was performed using the same protocol as the Standard LATS2 HTRF assay. The final condition of the reaction was 0.05 nM LATS2, 5000 μM ATP, 0.5 μM STK S1 peptide in 50 mM HEPES pH7.2, 10 mM MgCl2, 0.1% BGG, 0.005% Brij-35, 1 mM DTT and the 2 hours enzyme reaction at room temperature.

[2] = tested on: TAZ nuclear translocation in SW1990 cells; test: TAZ Nuclear Translocation Assay; type: cell-based; conditions: Homo sapiens, 4 hours
Description: The SW1990 cells (ATCC, CRL2172) were seeded at 5000 cells/well by adding 30 μL/well of cells in RPMI1640, 10% FBS, 2 mM glutamine culture media to a 384-well plate (Greiner 781091). The cells were incubated overnight at 37° C. Next day, test compounds were directly added to the cells using the Echo Liquid Handler (Labcyte), incubate at 37° C. for 4 hours. The cells were fixed with 4% paraformaldehyde and incubate for 20 minutes at room temperature. After washing three times with 100 μL PBS, 0.5% Triton X-100 was added to permeabilize the cells, incubate at room temperature for 5 minutes, following by washing the cells three times with PBS. 3% BSA was added to the cells, incubate for one hour at room temperature, following by washing three times with PBS. 50 μL of 1:750 diluted rabbit Anti-TAZ (Cell signaling D316D) in 3% BSA was added to the cells, incubate at 4° C. overnight. Next day, after washing the cells three times with PBS, 50 μL of 1:1250 diluted donkey anti-Rabbit, Alexa Fluor 488 (Invitrogen A21206) and 1:6250 diluted Hoechst 33342 (Molecular Probes H-21492) in 3% BSA was added to the cells, incubate at room temperature for one hour. The cells were washed three times with PBS, then image with the CellInsight CX7 High-Content Imager. The ratio of nuclear mean fluorescence intensity and cytoplasmic ring region mean fluorescence intensity was calculated. The % inhibition was normalized using DMSO as 0% inhibition and an inhibitor control as 100% inhibition. The EC50 values were calculated by fitting the % inhibition with a nonlinear four-parameter logistical equation.

Human LATS2 catalytic domain, sequence (Q9NRM7 553-1088): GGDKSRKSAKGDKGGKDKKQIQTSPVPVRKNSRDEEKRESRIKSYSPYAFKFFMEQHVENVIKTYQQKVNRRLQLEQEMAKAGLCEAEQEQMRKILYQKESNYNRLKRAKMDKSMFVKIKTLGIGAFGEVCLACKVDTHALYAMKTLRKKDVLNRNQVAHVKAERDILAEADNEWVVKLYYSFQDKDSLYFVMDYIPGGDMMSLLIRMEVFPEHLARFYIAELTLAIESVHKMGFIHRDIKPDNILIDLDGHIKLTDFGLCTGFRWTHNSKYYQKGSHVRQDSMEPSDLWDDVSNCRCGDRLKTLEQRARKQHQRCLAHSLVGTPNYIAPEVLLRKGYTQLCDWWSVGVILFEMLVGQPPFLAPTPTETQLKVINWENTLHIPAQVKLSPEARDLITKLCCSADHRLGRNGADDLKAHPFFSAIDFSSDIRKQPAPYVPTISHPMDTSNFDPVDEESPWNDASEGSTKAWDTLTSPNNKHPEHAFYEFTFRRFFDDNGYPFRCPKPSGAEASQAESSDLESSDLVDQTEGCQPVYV
Human LATS2 catalytic domain, sequence (Q7L9L4 whole entry partner, the tested form may be a part): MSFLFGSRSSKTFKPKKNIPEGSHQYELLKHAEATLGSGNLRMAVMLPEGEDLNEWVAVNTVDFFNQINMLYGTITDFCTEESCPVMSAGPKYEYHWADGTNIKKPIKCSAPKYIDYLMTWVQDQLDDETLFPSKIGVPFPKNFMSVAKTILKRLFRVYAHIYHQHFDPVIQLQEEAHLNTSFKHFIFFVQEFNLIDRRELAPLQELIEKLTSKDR

Structure (SMILES)	pKi [1]	pEC50 [2]
c1cc(-c2nc(N3CCC4(CC3)CCN(C3CCOC3)C4)c3ccncc3n2)ccn1 (racemic) [Compound 111, 2-(pyridin-4-yl)-4-(2-(tetrahydrofuran-3-yl)-2,8-diazaspiro[4.5]decan-8-yl)pyrido[3,4-d]pyrimidine]	9.85	6.20
FCC1CC2(CCN(c3nc(-c4ccncc4)nc4cnccc34)CC2)CN1 (racemic) [Example 216, 4-(3-(fluoromethyl)-2,8-diazaspiro[4.5]decan-8-yl)-2-(pyridin-4-yl)pyrido[3,4-d]pyrimidine]	9.89	6.31
c1cc(-c2nc(N3CCC4(CC3)CC3COCCN3C4)c3ccncc3n2)ccn1 (racemic) [Example 218, 1-(2-(pyridin-4-yl)pyrido[3,4-d]pyrimidin-4-yl)hexahydrospiro[piperidine-4,7′-pyrrolo[2,1-c][1,4]oxazine]]	8.37	5.17
O[C@H]1CC[C@@H](N2CCC3(CCN(c4nc(-c5ccncc5)nc5cnccc45)CC3)C2)C1 (single isomer, unassigned) [Compound 169]	9.35	6.24
O[C@@H]1CC[C@H](N2CCC3(CCN(c4nc(-c5ccncc5)nc5cnccc45)CC3)C2)C1 (single isomer, unassigned) [Compound 170]	9.54	6.42
O[C@@H]1COC[C@H]1N1CCC2(CCN(c3nc(-c4ccncc4)nc4cnccc34)CC2)C1 (single isomer, unassigned) [Compound 176]	9.03	5.75
O[C@H]1COC[C@@H]1N1CCC2(CCN(c3nc(-c4ccncc4)nc4cnccc34)CC2)C1 (single isomer, unassigned) [Compound 177]	9.41	5.60
CN1CCC2(CCN(c3nc(-c4ccncc4)nc4cnc(CC(F)(F)F)cc34)CC2)C1 [Compound 195, 4-(2-methyl-2,8-diazaspiro[4.5]decan-8-yl)-2-(pyridin-4-yl)-6-(2,2,2-trifluoroethyl)pyrido[3,4-d]pyrimidine]	10.41	
CC(=O)N1CC(Oc2cncc3nc(-c4ccncc4)nc(N4CCC5(CCN(C)C5)CC4)c23)C1 [Compound 278, 1-(3-((4-(2-Methyl-2,8-diazaspiro[4.5]decan-8-yl)-2-(pyridin-4-yl)pyrido[3,4-d]pyrimidin-5-yl)oxy)azetidin-1-yl)ethan-1-one]	7.96	
COc1cncc2nc(-c3ccncc3)nc(N3CCC4(CCN(CC5(F)COC5)C4)CC3)c12 [Compound 282, 4-[2-[(3-Fluorooxetan-3-yl)methyl]-2,8-diazaspiro[4.5]decan-8-yl]-5-methoxy-2-(4-pyridyl)pyrido[3,4-d]pyrimidine]	10.41	
COc1cncc2nc(-c3ccncc3)nc(N3CCC4(CCN(CC(C)(O)C(F)(F)F)C4)CC3)c12 (stereo not drawn) [Compound 283, 1,1,1-Trifluoro-3-[8-[5-methoxy-2-(4-pyridyl)pyrido[3,4-d]pyrimidin-4-yl]-2,8-diazaspiro[4.5]decan-2-yl]-2-methyl-propan-2-ol]	10.02	
CN1CCC2(CCN(c3nc(-c4ccncc4)nc4c(C#N)nccc34)CC2)C1 [Compound 284, 4-(2-Methyl-2,8-diazaspiro[4.5]decan-8-yl)-2-(pyridin-4-yl)pyrido[3,4-d]pyrimidine-8-carbonitrile]	8.39	
c1cc(-c2cc(N3CCC4(CCNC4)CC3)c3ccncc3n2)ccn1 [Example 200, 2-(Pyridin-4-yl)-4-(2,8-diazaspiro[4.5]decan-8-yl)-1,7-naphthyridine]	7.84	
c1cc(-c2cc(N3CCC4(CCNC4)CC3)c3ccncc3n2)ncn1 [Example 201, 2-(pyrimidin-4-yl)-4-(2,8-diazaspiro[4.5]decan-8-yl)-1,7-naphthyridine trifluoroacetate]	7.95	
COc1nccc2c(N3CCC4(CCN(C)C4)CC3)nc(-c3ccncc3)nc12 [Example 203, 8-methoxy-4-(2-methyl-2,8-diazaspiro[4.5]decan-8-yl)-2-(pyridin-4-yl)pyrido[3,4-d]pyrimidine]	7.10	
[O-][n+]1ccc2c(N3CCC4(CCNC4)CC3)nc(-c3ccncc3)nc2c1 [Example 207, 2-(pyridin-4-yl)-4-(2,8-diazaspiro[4.5]decan-8-yl)pyrido[3,4-d]pyrimidine 7-oxide]	7.64	
CN1CCC2(CCN(c3nc(-c4ccncc4)nc4cnc(C(F)(F)F)cc34)CC2)C1 [Example 209, 4-(2-methyl-2,8-diazaspiro[4.5]decan-8-yl)-2-(pyridin-4-yl)-6-(trifluoromethyl)pyrido[3,4-d]pyrimidine]	7.35	

Now from value to compound:

pKi [1]	pEC50 [2]	Structure (SMILES)
9.39	5.60	CN1CC2(CCN(c3nc(-c4ccncc4)nc4cnccc34)CC2)CC1CO (racemic) [Example 212, (2-methyl-8-(2-(pyridin-4-yl)pyrido[3,4-d]pyrimidin-4-yl)-2,8-diazaspiro[4.5]decan-3-yl)methanol]
9.46	6.11	COCC1CC2(CCN(c3nc(-c4ccncc4)nc4cnccc34)CC2)CN1C (racemic) [Example 217, 4-(3-(methoxymethyl)-2-methyl-2,8-diazaspiro[4.5]decan-8-yl)-2-(pyridin-4-yl)pyrido[3,4-d]pyrimidine]
9.24	6.13	C[C@H](CO)N1CCC2(CCN(c3nc(-c4ccncc4)nc4cnccc34)CC2)C1 (single isomer, unassigned) [Compound 103]
9.28	6.35	C[C@@H](CO)N1CCC2(CCN(c3nc(-c4ccncc4)nc4cnccc34)CC2)C1 (single isomer, unassigned) [Compound 104]
10.07	6.16	Cc1n[nH]cc1-c1nc(N2CCC3(CCN(C[C@H](C)O)C3)CC2)c2ccncc2n1 (single isomer, unassigned) [Compound 144]
10.41	6.03	Cc1n[nH]cc1-c1nc(N2CCC3(CCN(C[C@@H](C)O)C3)CC2)c2ccncc2n1 (single isomer, unassigned) [Compound 145]
7.89		Cc1cnsc1-c1nc(N2CCC3(CCNC3)CC2)c2ccncc2n1 [Compound 244, 5-(4-(2,8-diazaspiro[4.5]decan-8-yl)pyrido[3,4-d]pyrimidin-2-yl)-4-methylisothiazole]
	6.89	COc1cncc2nc(-c3ccncc3)nc(N3CCC4(CCN(C)C4)CC3)c12 [Compound 252, 5-Methoxy-4-(2-methyl-2,8-diazaspiro[4.5]decan-8-yl)-2-(pyridin-4-yl)pyrido[3,4-d]pyrimidine formate]
10.82		COc1cncc2nc(-c3cn[nH]c3C)nc(N3CCC4(CCN(CC(F)F)C4)CC3)c12 [Compound 281, 4-(2-(2,2-difluoroethyl)-2,8-diazaspiro[4.5]decan-8-yl)-5-methoxy-2-(5-methyl-1H-pyrazol-4-yl)pyrido[3,4-d]pyrimidine]
7.22		Cc1nn(C)cc1-c1nc(N2CCC3(CC2)CCN(C2CCCC2)C3)c2ccncc2n1 [Example 208, 4-(2-cyclopentyl-2,8-diazaspiro[4.5]decan-8-yl)-2-(1,3-dimethyl-1H-pyrazol-4-yl)pyrido[3,4-d]pyrimidine]
9.60		Cc1n[nH]cc1-c1nc(N2CCC3(CCN(CCS(=O)(=O)N(C)C)C3)CC2)c2ccncc2n1 [Example 210, N,N-dimethyl-2-(8-(2-(3-methyl-1H-pyrazol-4-yl)pyrido[3,4-d]pyrimidin-4-yl)-2,8-diazaspiro[4.5]decan-2-yl)ethanesulfonamide]
7.72		Cc1n[nH]cc1-c1nc(N2CCC3(CCNC3)CC2)c2ccnc(O)c2n1 [Example 237, 2-(3-methyl-1H-pyrazol-4-yl)-4-(2,8-diazaspiro[4.5]decan-8-yl)pyrido[3,4-d]pyrimidin-8-ol]
